Source: publication PMC7181660, “A novel specific PERK activator reduces toxicity and extends survival in Huntington's disease models” (Scientific Reports, 2020)
pEC50, pIC50: −log10 of the molar value.

Legend:
[1] = target: panel of 391 kinases (Homo sapiens, UniProt Q9H0K1); assay: biochemical; assay type: biochemical; details: SIK2, MK-28 1 µM, ATP 1 µM
[2] = target: panel of 391 kinases (Homo sapiens, UniProt Q96L34); assay: biochemical; assay type: biochemical; details: MARK4, MK-28 1 µM, ATP 1 µM
[3] = target: panel of 391 kinases (Homo sapiens, UniProt Q14680); assay: biochemical; assay type: biochemical; details: MELK, MK-28 1 µM, ATP 1 µM
[4] = target: panel of 391 kinases (Homo sapiens, UniProt Q86Y07); assay: biochemical; assay type: biochemical; details: VRK2, MK-28 1 µM, ATP 1 µM
[5] = target: panel of 391 kinases (Homo sapiens, UniProt P45985); assay: biochemical; assay type: biochemical; details: MKK4, MK-28 1 µM, ATP 1 µM
[6] = target: panel of 391 kinases (Homo sapiens, UniProt Q8N568); assay: biochemical; assay type: biochemical; details: DCAMKL2, MK-28 1 µM, ATP 1 µM
[7] = target: panel of 391 kinases (Homo sapiens, UniProt Q99683); assay: biochemical; assay type: biochemical; details: ASK1/MAP3K5, MK-28 1 µM, ATP 1 µM
[8] = target: panel of 391 kinases (Homo sapiens, UniProt P27448); assay: biochemical; assay type: biochemical; details: MARK3, MK-28 1 µM, ATP 1 µM
[9] = target: panel of 391 kinases (Homo sapiens, UniProt P29317); assay: biochemical; assay type: biochemical; details: EPHA2, MK-28 1 µM, ATP 1 µM
[10] = target: panel of 391 kinases (Homo sapiens, UniProt Q16620); assay: biochemical; assay type: biochemical; details: TRKB, MK-28 1 µM, ATP 1 µM
[11] = target: panel of 391 kinases (Homo sapiens, UniProt P43250); assay: biochemical; assay type: biochemical; details: GRK6, MK-28 1 µM, ATP 1 µM
[12] = target: panel of 391 kinases (Homo sapiens, UniProt Q12852); assay: biochemical; assay type: biochemical; details: DLK/MAP3K12, MK-28 1 µM, ATP 1 µM
[13] = target: panel of 391 kinases (Homo sapiens, UniProt P31749); assay: biochemical; assay type: biochemical; details: AKT1, MK-28 1 µM, ATP 1 µM
[14] = target: panel of 391 kinases (Homo sapiens, UniProt P07949); assay: biochemical; assay type: biochemical; details: RET, MK-28 1 µM, ATP 1 µM
[15] = target: panel of 391 kinases (Homo sapiens, UniProt Q5VT25); assay: biochemical; assay type: biochemical; details: MRCKa/CDC42BPA, MK-28 1 µM, ATP 1 µM
[16] = target: panel of 391 kinases (Homo sapiens, UniProt Q9H4A3); assay: biochemical; assay type: biochemical; details: WNK1, MK-28 1 µM, ATP 1 µM
[17] = target: panel of 391 kinases (Homo sapiens, UniProt Q06418); assay: biochemical; assay type: biochemical; details: TYRO3/SKY, MK-28 1 µM, ATP 1 µM
[18] = target: EIF2AK4 (GCN2) (Homo sapiens, UniProt Q9P2K8); assay: In vitro HotSpot kinase assay on GCN2; assay type: biochemical; details: plateau considered reached at 10 µM; read-out: EC50 of GCN2 activation
Method: In vitro kinase assays with purified components and full kinase panel analysis was done at Reaction Biology Corp. (Malvern, PA, USA) using the HotSpot Kinase Assay. Reactions were performed for 20 min at room temp. using ^33P-ATP (Specific activity 10 μCi/μl) with 1 μM total ATP, 20 μM substrate and kinases in the nanomolar range in 20 mM Hepes (pH 7.5), 10 mM MgCl2, 1 mM EGTA, 0.02% Brij35, 0.02 mg/ml BSA, 0.1 mM Na3VO4, 2 mM DTT, 1% DMSO and other required factors depending on the assayed kinase. […]
was calculated from the data in Fig. 3. Note that for the calculation for GCN2, we considered […]
Suppl. Fig. S3. Modulation of PERK by A4. A4 was tested for its effect on isolated PERK in vitro, showing a weak activating effect in the nanomolar range. (performed at Reaction Biology Corp. using the HotSpot Kinase Assay).
(1 picture or pasted object on this page, not shown here)

[19] = test system: STHdh^Q111/111 cells; assay: Toxicity assay: rescue from tunicamycin (ER stress)-induced apoptosis, FACS with propidium iodide (sub-G0/G1); assay type: cell-based, murine
Method: STHdh^Q111/111 cells (used before[13]) or PERK+/+ or PERK−/− MEFs (kindly provided by David Ron, Univ. Cambridge) were incubated with Tun (10 μg/ml) for 48 h, which results in ER stress-induced cell death. Cells under the same conditions were incubated for the same times, together with Tun, with increasing concentrations of the different PERK modulators (0–120 μM) and the percent of apoptotic cells was measured by FACS cell cycle progression using propidium iodide (PI), considering the fraction beneath G0/G1. The relative apoptosis rate was calculated to be able to compare between compounds and experiments, where for each concentration curve the percent of apoptotic cells was considered 100 at concentration 0 of the PERK modulator, with only Tun. The graphs show the average relative apoptosis rate of at least 3 independent experiments for each compound.
Cells were washed with PBS and fixed with cold methanol. Before FACS analysis cells were washed with PBS, followed by addition of propidium iodide (PI) solution (10 μg/ml) and analysis by flow cytometry. Cells in sub-G0/G1 were counted as apoptotic/ dead.

[20] = read-out: % Enzyme Activity (relative to DMSO controls)

## CN(/N=C\c1ccc(O)c(O)c1)c1nc(-c2ccccc2)cc(-c2ccccc2)n1 [MK-28]
[1]
  % Enzyme Activity (relative to DMSO controls): 93.76%
[1]; [20]
  remaining activity at 1 µM: 97.5%
[2]
  % Enzyme Activity (relative to DMSO controls): 96.24%
[2]; [20]
  remaining activity at 1 µM: 99.8%
[3]
  % Enzyme Activity (relative to DMSO controls): 84.50%
[3]; [20]
  remaining activity at 1 µM: 85.5%
[4]
  % Enzyme Activity (relative to DMSO controls): 96.44%
[4]; [20]
  remaining activity at 1 µM: 97%
[5]
  % Enzyme Activity (relative to DMSO controls): 102.88%
[5]; [20]
  remaining activity at 1 µM: 103%
[6]
  % Enzyme Activity (relative to DMSO controls): 121.14%
[6]; [20]
  remaining activity at 1 µM: 122%
[7]
  % Enzyme Activity (relative to DMSO controls): 97.76%
[7]; [20]
  remaining activity at 1 µM: 100%
[8]
  % Enzyme Activity (relative to DMSO controls): 98.84%
[8]; [20]
  remaining activity at 1 µM: 99%
[9]
  % Enzyme Activity (relative to DMSO controls): 99.61%
[9]; [20]
  remaining activity at 1 µM: 100%
[10]
  % Enzyme Activity (relative to DMSO controls): 96.28%
[10]; [20]
  remaining activity at 1 µM: 96.3%
[11]
  % Enzyme Activity (relative to DMSO controls): 102.17%
[11]; [20]
  remaining activity at 1 µM: 104%
[12]
  % Enzyme Activity (relative to DMSO controls): 122.20%
[12]; [20]
  remaining activity at 1 µM: 124%
[13]
  % Enzyme Activity (relative to DMSO controls): 95.66%
[13]; [20]
  remaining activity at 1 µM: 96.7%
[14]
  % Enzyme Activity (relative to DMSO controls): 98.07%
[14]; [20]
  remaining activity at 1 µM: 99.2%
[15]
  % Enzyme Activity (relative to DMSO controls): 93.74%
[15]; [20]
  remaining activity at 1 µM: 95.3%
[16]
  % Enzyme Activity (relative to DMSO controls): 103.91%
[16]; [20]
  remaining activity at 1 µM: 104%
[17]
  % Enzyme Activity (relative to DMSO controls): 99.89%
[17]; [20]
  remaining activity at 1 µM: 100%
[18]
  pEC50: 5.46
[19]; 0–100 μM, 48 h Tun exposure (Fig. 1C)
  rescue from ER stress-induced apoptosis: able to rescue the cells from apoptosis
[19]; 5 μM, 48 h Tun exposure
  reduction of apoptosis: 20%
[19]; 10 μM, Tun (Fig. 4C)
  reduction of apoptosis: 40%
[19]; 100 μM, 48 h Tun exposure
  reduction of apoptosis: 5 fold
[19]; Fig. 4C
  IC50 ratio MK-28 vs CCT020312 in rescuing mHtt-expressing striatal neurons from apoptosis: ~ 3 fold
[19]; Mus musculus, STHdhQ111, STHdh^Q111/111 cells treated with Tun, read-out: IC50 for inhibition of apoptosis
  pIC50: 5.17
[19]; Tun (Fig. 1D)
  concentration that showed identical levels of apoptosis in STHdh^Q111/111 and STHdh^Q7/7 cells: 50 µM
